{
  "source": "paper PMC7785802",
  "about": "“Therapeutic Efficacy of a Trichinella Spiralis Paramyosin-Derived Peptide Modified With a Membrane-Targeting Signal in Mice With Antigen-Induced Arthritis” (Frontiers in Microbiology, 2020)",
  "system": "mouse ATDC5 cells",
  "experiment": "Peptide binding to cell surface, confocal laser scanning microscopy",
  "assay_type": "cell-based",
  "conditions": "biotin-labeled peptide 260 nmol, 540 nmol, 1.08 mmol; streptavidin-FITC, DAPI",
  "description": "The mouse ATDC5 chondrogenic cell line is an important chondrocyte model that has been widely used in the study of chondrocyte proliferation and differentiation. This cell line was used to evaluate the membrane-binding ability of the modified peptide, as articular cartilage (which contains chondrocytes) is one of the main cellular components in the joint cavity. The cells were purchased from Guangzhou Jennio Biotech Co., Ltd. (Guangzhou, China) and maintained in Dulbecco's Modified Eagle Medium (DMEM, ThermoFisher, America) supplemented with 10% fetal bovine serum (FBS, Gibco, Australia) at 37°C in a humidified atmosphere with 5% CO2. The 5th−10th passages of the cells were used in the study.\nTo assess the binding ability of the modified peptide to the cell membrane, the three peptides were labeled with biotin at the C-terminus. […] The cells were washed and resuspended in PBS and then the binding of the peptides to the cell membrane was assessed by flow cytometry (BD Biosciences, California, USA). […] The binding of the peptides to the cell membrane was then assessed by staining with streptavidin-FITC (eBioscience). […] They were then analyzed by confocal laser scanning microscopy (Leica, Germany).\nFigure 3 Modified peptide non-specifically bound to the cell surface. (A) Binding of peptides to the surface of mouse ATDC5 cells measured by flow cytometry. […]",
  "data": [
    {"substance": "Myr-GSSKSPSKKKKKKPG-ACP-VSMGKSLSSKVYVM [modified peptide, Ts-pmy-derived peptide modified with a membrane-targeting signal]", "values": [
      {"measurement": "binding to surface of ATDC5 cells (confocal microscopy)", "result": "could bind to the surface of mouse ATDC5 cells"}
    ]}
  ]
}
